Tests used:
WI-38 cells = experiment: Inhibition of human WI-38 embryonic lung cell proliferation (Cell-Titer Glo); assay type: cell-based; details: Homo sapiens, 72 h, 3 days incubation, read-out: Anti-Proliferative Activity Against WI-38 cells IC50
Experimental: Introduction of the experimental principle: After the RAD51 inhibitor to be tested was co-incubated with human embryonic lung cells for a period of time, the influence of the test compound on cell proliferation was measured by a method for counting cell proliferation based on the quantitative measurement of intracellular ATP content.
Materials and Cells: WI-38 cells were purchased from ATCC; fetal bovine serum, 1640 medium and penicillin-streptomycin were purchased from Gibco Inc. (U.S.), 96-well plates were purchased from Corning Inc. (U.S.), and Cell-Titer Glo reagent was purchased from Promega Corporation (U.S.).
Cell culture: WI-38 cells were cultured in an EMEM culture medium containing 10% fetal bovine serum and 1% penicillin-streptomycin at 37° C. in an atmosphere containing 5% CO2. Cells in logarithmic growth phase could be used for experiments.
Assay of cell proliferation and viability: Cell-Titer Glo reagent was used to measure the inhibitory activities of the compounds on the proliferation of WI-38 cell strain. The concentration of cells was adjusted, and the cells were seeded in a 96-well plate and cultured at 37° C. in an atmosphere containing 5% CO2 for 24 hours. The powder of the compound was dissolved in 100% DMSO to form a 10 mM solution. 10 μl of the solution of the compound was aspirated and transferred into a 96-well compound plate containing 20 μl of DMSO solution in each well for 3-fold dilution and was then formulated to 10 serial dilutions. Thereafter, 2 μl of the solution of the compound was aspirated from the corresponding well and added correspondingly into a 96-well intermediate compound dilution plate containing 78 μl of complete culture medium in each well. The resultant was mixed well, and the plate was centrifuged at 1000 rpm for 1 minute. Finally, 10 μl of the solution of the compound was aspirated from the corresponding well of the 96-well intermediate compound dilution plate, and transferred into the corresponding well of the cell culture plate containing 90 μl of complete culture medium. The final concentration of DMSO was 0.25%. After the addition of the compound, the cells were continued to be incubated for 3 days at 37° C. in an atmosphere containing 5% CO2. Cell-Titer Glo reagent was added to measure cell viability.
% Compound inhibition was calculated and IC50 of the compound was fitted;
% Compound inhibition=1−100%×(Signal−Bottom)/(Top−Bottom)

Daudi cells = experiment: Inhibition of human Daudi lymphoma cell proliferation (Cell-Titer Glo); assay type: cell-based; details: Homo sapiens, 72 h, 3 days incubation, read-out: Anti-Proliferative Activity Against Daudi cells IC50
How it was run: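 Daudi cells in RPMI 1640 with 10% FBS were seeded and grown 24 h, then exposed for 3 days (37 °C, 5% CO2) to 10-point 3-fold serial dilutions at 0.25% final DMSO. Viability was read by CellTiter-Glo ATP luminescence, and IC50 was fitted from % inhibition against top/bottom controls.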

IC50 (Daudi cells) [nM]	SMILES	IC50 (WI-38 cells) [nM]
10	CC(C)OC(=O)N[C@H]1CC[C@H](c2ncc(-c3ccc(Nc4cc(C5CC5)[nH]n4)cc3S(=O)(=O)C3CC3)s2)CC1 [Example 62, isopropyl trans-N-[4-[5-[4-[(5-cyclopropyl-1H-pyrazol-3-yl)amino]-2-cyclopropylsulfonyl-phenyl]thiazol-2-yl]cyclohexyl]carbamate]	> 25000
30	CC(C)OC(=O)N[C@H]1CC[C@H](c2ncc(-c3ccc(Nc4cnn(C)c4)cc3S(=N)(=O)C3CC3)s2)CC1 (stereo partly drawn) [Example 69, isopropyl trans-(4-(5-(2-(cyclopropanesulfonimidoyl)-4-((1-methyl-1H-pyrazol-4-yl)amino)phenyl]thiazol-2-yl)cyclohexyl)carbamate]	> 25000
4	Cc1cc(Nc2ccc(-c3cnc([C@H]4CC[C@H](NC(=O)OC(C)C)CC4)s3)c(S(=O)(=O)C3CCC3)c2)n[nH]1 [Example 88, isopropyl trans-(4-(5-(2-(cyclobutylsulfonyl)-4-((5-methyl-1H-pyrazol-3-yl)amino)phenyl)thiazol-2-yl)cyclohexyl)carbamate]	> 25000
28	Cc1cc(Nc2ccc(-c3cnc([C@H]4CC[C@H](NC(=O)OC(C)C)CC4)s3)c(S(=N)(=O)C3CCC3)c2)n[nH]1 (stereo partly drawn) [Example 101, isopropyl trans-(4-(5-(2-(cyclobutanesulfonimidoyl)-4-((5-methyl-1H-pyrazol-3-yl)amino)phenyl]thiazol-2-yl)cyclohexyl)carbamate]	> 25000
17	CC(C)OC(=O)N[C@H]1CC[C@H](c2ncc(-c3ccc(Nc4cnn(CCF)c4)cc3S(=N)(=O)C3CCC3)s2)CC1 (stereo partly drawn) [Example 102]	> 25000
23	CC(C)OC(=O)N[C@H]1CC[C@H](c2ncc(-c3ccc(Nc4cnn(CCF)c4)cc3P3(=O)CCC3)s2)CC1 [Example 104, isopropyl trans-(4-(5-(4-((1-(2-fluoroethyl)-1H-pyrazol-4-yl)amino)-2-(1-oxophosphetan-1-yl)phenyl)thiazol-2-yl)cyclohexyl)carbamate]	> 25000
14	Cc1cc(Nc2ccc(-c3cnc([C@H]4CC[C@H](NC(=O)OC(C)C)CC4)s3)c(S(=O)(=O)C3CN(C)C3)c2)n[nH]1 [Example 114, isopropyl trans-(4-(5-(4-((5-methyl-1H-pyrazol-3-yl)amino)-2-((1-methylazetidin-3-yl)sulfonyl)phenyl)thiazol-2-yl)cyclohexyl)carbamate]	> 25000
16	Cc1cc(Nc2ccc(-c3cnc([C@H]4CC[C@H](NC(=O)OC(C)C)CC4)s3)c(S(=O)(=O)C3CCOC3)c2)n[nH]1 (stereo partly drawn) [Example 115, isopropyl trans-(4-(5-(4-((5-methyl-1H-pyrazol-3-yl)amino)-2-((tetrahydrofuran-3-yl)sulfonyl)phenyl)thiazol-2-yl)cyclohexyl)carbamate]	> 25000
7	Cc1cc(Nc2ccc(-c3cnc([C@H]4CC[C@H](NC(=O)OC(C)C)CC4)s3)c(S(=O)(=O)C3COC3)c2)n(C)n1 [Example 117, isopropyl trans-(4-(5-(4-((1,3-dimethyl-1H-pyrazol-5-yl)amino)-2-(oxetan-3-ylsulfonyl)phenyl)thiazol-2-yl)cyclohexyl)carbamate]	20000

Second part, the compound before the results:

SMILES	IC50 (Daudi cells) [nM]	IC50 (WI-38 cells) [nM]
Cc1cc(Nc2ccc(-c3cnc([C@H]4CC[C@H](NC(=O)OC(C)C)CC4)s3)c(S(=O)(=O)NC(C)(C)C)c2)n[nH]1 [Example 28, isopropyl trans-(4-(5-(2-(N-(tert-butyl)sulfamoyl)-4-((5-methyl-1H-pyrazol-3-yl)amino)phenyl)thiazol-2-yl)cyclohexyl)carbamate]	48	15000
CC(C)OC(=O)N[C@H]1CC[C@H](c2ncc(-c3ccc(Nc4ccno4)cc3S(=O)(=O)NC(C)(C)C)s2)CC1 [Example 29, isopropyl trans-(4-(5-(2-(N-(tert-butyl)sulfamoyl)-4-(isoxazol-5-ylamino)phenyl)thiazol-2-yl)cyclohexyl)carbamate]	340	18400
CC(C)OC(=O)Nc1ccc(-c2cnc([C@H]3CC[C@H](NC(=O)OC(C)C)CC3)s2)c(S(=O)(=O)C(C)(C)C)c1 [Example 34, isopropyl trans-N-[3-tert-butylsulfonyl-4-[2-[4-(isopropoxycarbonylamino)cyclohexyl]thiazol-5-yl]phenyl]carbamate]	700	> 25000
Cc1cc(Nc2ccc(-c3cnc([C@H]4CC[C@H](NC(=O)OC(C)C)CC4)s3)c(S(=O)(=O)C(C)C)c2)nn1C [Example 36, isopropyl trans-(4-(5-(4-((1,5-dimethyl-1H-pyrazol-3-yl)amino)-2-(isopropylsulfonyl)phenyl)thiazol-2-yl)cyclohexyl)carbamate]	77	24600
Cc1cc(Nc2ccc(-c3cnc([C@H]4CC[C@H](NC(=O)OC(C)C)CC4)s3)c(S(=O)(=O)C(C)C)c2)no1 [Example 37, isopropyl trans-(4-(5-(2-(isopropylsulfonyl)-4-((5-methylisoxazol-3-yl)amino)phenyl)thiazol-2-yl)cyclohexyl)carbamate]	330	> 25000
CC(C)OC(=O)N[C@H]1CC[C@H](c2ncc(-c3ccc(Nc4cn(C)nn4)cc3S(=O)(=O)C(C)C)s2)CC1 [Example 39, isopropyl trans-(4-(5-(2-(isopropylsulfonyl)-4-((1-methyl-1H-1,2,3-triazol-4-yl)amino)phenyl)thiazol-2-yl)cyclohexyl)carbamate]	230	> 25000
Cc1cc(Nc2ccc(-c3cnc([C@H]4CC[C@H](NC(=O)OC(C)C)CC4)s3)c(S(=O)(=O)C(C)C)c2)n[nH]1 [Example 40, isopropyl trans-(4-(5-(2-(isopropylsulfonyl)-4-((5-methyl-1H-pyrazol-3-yl)amino)phenyl)thiazol-2-yl)cyclohexyl)carbamate]	51	22900
CC(C)OC(=O)N[C@H]1CC[C@H](c2ncc(-c3ccc(Nc4cc(C5CC5)[nH]n4)cc3S(=O)(=O)C(C)C)s2)CC1 [Example 45, isopropyl trans-N-[4-[5-[4-[(5-cyclopropyl-1H-pyrazol-3-yl)amino]-2-isopropylsulfonyl-phenyl]thiazol-2-yl]cyclohexyl]carbamate]	62	> 25000
CC(C)OC(=O)N[C@H]1CC[C@H](c2ncc(-c3ccc(Nc4cn(C)nn4)cc3P3(=O)CCCC3)s2)CC1 [Example 53, isopropyl trans-N-[4-[5-[4-[(1-methyltriazol-4-yl)amino]-2-(1-oxidophospholan-1-yl)phenyl]thiazol-2-yl]cyclohexyl]carbamate]	100	> 25000

Reference: patent US20230142274A1 (SIMCERE PHARMACEUTICAL CO., LTD., priority 2020, published 2023)
